Data as given in article PMC11729550, “Discovery of indole analogue Tc3 as a potent pyroptosis inducer and identification of its combination strategy against hepatic carcinoma” (Theranostics, 2025).

Tests used:
[1] = system: PRDX1; experiment: Western blot of PRDX1; assay type: cell-based, human; conditions: hepatic carcinoma cells
Protocol: The whole-cell protein was extracted by RIPA lysis buffer contained with protease and phosphatase inhibitor cocktail (MCE, HY-K0010) from cells treated by indole analogues. Proteins were separated by sodium dodecyl sulfate-polyacrylamide gel electrophoresis (SDS-PAGE) gel, and then blotted onto polyvinylidene difluoride membrane (Millipore, IPVH00010). The membranes were incubated with the primary antibodies and the following horseradish peroxidase-conjugated (HRP) secondary antibodies. Next, membranes were washed and developed by ECL regent (Millipore, WBKLS0500).

[2] = system: pLKO.1 HepG2 cells; experiment: Dose-response growth inhibition, control knockdown cells; assay type: cell-based; conditions: Homo sapiens
Protocol: The cells were counted with hemocytometer.
Briefly, the pLKO.1 or shRNA plasmids with psPAX2 and PMD2.G were transfected into HEK-293T cells via DNA transfection reagent (SignaGen®Laboratories, SL100688). And the cell supernatant contained Lenti-virus was collected after 24 hours. The Lenti-virus of shRNAs were used to infect the hepatic carcinoma cells and the stable-transfection cell lines were screened by puromycin (1 μg/mL) (Solarbio, P8230).

[3] = system: HepG2 cells; experiment: Flow cytometry of propidium iodide and annexin V-FITC staining; assay type: cell-based, human; conditions: HepG2, 4 μM
Description: Figure 2 Cytotoxic effect of Tc3 on human hepatic carcinoma cells in vitro. […] (B-C) Cell viability rates of HepG2 (B) and SK-Hep1 (C) cells treated with Tb7, Tc1, Tc3, Tc4 and other clinical chemotherapy drugs. (D-F) Flow cytometry of propidium iodide and annexin V-fluorescein isothiocyanate (FITC)-stained HepG2 cells (D). Statistical analysis of the early apoptotic cells (E) and late apoptotic cells (F). (G-I) Flow cytometry of propidium iodide and annexin V-fluorescein isothiocyanate (FITC)-stained AML-12 cells (G). Statistical analysis of the early apoptotic cells (H) and late apoptotic cells (I). Data are presented as mean ± SD of three independent biological experiments. *p < 0.05, **p < 0.01, ***p < 0.001 and ****p < 0.0001, ns, no significant.

## CC(C)[C@H](N)C(=O)NCCCn1cc(/C=C2\S/C(=N\c3ccc(N4CCOCC4)cc3)N(Cc3ccc(F)cc3)C2=O)c2ccccc21 [Tc3]
[1]
  expression of PRDX1: obviously reduced
[2]
  IC50: 2220 nM
[3]
  cell death by annexin V / propidium iodide flow cytometry: severe cell death
